From patent US12582720B2, “Compound for preventing or treating lipid metabolism-related diseases” (Fudan University, priority 2020, dated 2026)
Entries after “also recorded” stand apart in the source; their conditions may differ.

Legend:
[1] = test system: lipid droplets in wild type MEF cells; test: Reduction of OA-induced lipid droplets in wild type MEF cells (BODIPY 493/503 staining); assay type: cell-based, mouse; conditions: wild type MEF, 24 h; for lipid droplets: 1.5 μM or 5 μM; for amount of lipid droplets / size of lipid droplets: OA-induced
Procedure: (5) OA-BSA stock solution was prepared into OA-BSA working solution (50× final concentration, 200 μM), and 40 μl of OA-BSA working solution was added to each well to induce lipid droplets. For the non-OA induction group, 40 μl of 10% BSA solution was added to the control well, and the amount of BSA was the same as that of the experimental group.
Compounds were formulated into DMSO stock solutions. Stock compounds were diluted with DMSO into the indicated concentrations of working solutions prior to use in the treatment of cells. After induction of the lipid droplets with OA for the indicated time, the test compounds were added to the cells respectively. Control wells were replaced with the equal volume of DMSO. Unless otherwise stated, the compounds were diluted into 10× solutions using the culture medium and added to the culture medium for 24 hours of incubation. Cells were treated with compounds in a 37° C. incubator with 5% CO2.
(3) The original medium in the multi-well plates was removed, washed and the cells was fixed, 1 ml of the BODIPY solution prepared in (1) was added to each well, and stained for 15 minutes. The staining solution was aspirated and washed with 1×PBS.
(5) The coverslips laid in the multi-well plates were removed, and imaged with the Zeiss 880 confocal microscope after mounted, and analyzed the size and number of lipid droplets with ImageJ.
Wild type MEF cells were cultured in a DMEM culture medium containing 10% FBS. Cells were plated according to the method as described above (12 well plate was plated with aseptic treated slides). When cells grew to a confluence of 60-70%, lipid droplets were induced with OA for 30 h according to the method as described above.
At the time point of 6th hour after initiation of induction, the cells were treated (treated for 24 hours) with Compound 1A or Compound 2A (compound concentrations were 50 μM, 15.8 μM, 5 μM, 1.58 μM, 0.5 μM, 0.158 μM) according to the method as described above.

[2] = test system: lipid droplets in autophagy-deficient MEF cells (Atg5−/−); test: Lipid droplets in autophagy-deficient MEF cells (Atg5-/-); assay type: cell-based, mouse; conditions: 5 μM, 24 h
Procedure: Wild type MEF cells and autophagy-deficient MEF cells (Atg5−/−) were cultured in a DMEM culture medium containing 10% FBS. Cells were plated according to the method as described above (12 well plate was plated with aseptic treated slides). When cells grew to a confluence of 60-70%, lipid droplets were induced with OA for 30 h according to the method as described above. At the time point of 6th hour after initiation of induction, OA induced lipid droplets for 30 h, and the cells were treated (treated for 24 hours) with Compound 1A or Compound 2A according to the method as described above. […] The control wells were replaced with DMSO (treated with DMSO). […] After 26 hours of OA induction for lipid droplets, the culture medium of DMSO treated cells was replaced with EBSS, and starved for 4 hours to induce autophagy, and a slight reduction on lipid droplets was observed relative to cells without starvation treatment. Therefore, lipid droplets can be degraded via cell autophagy. The compound of present disclosure could promote the degradation of lipid droplets via cell autophagy.

[3] = test system: lipid droplets in SH-SY5Y cells; test: Reduction of OA-induced lipid droplets in SH-SY5Y cells; assay type: cell-based, human; conditions: for amount of lipid droplet: 1.58 μM-50 μM; for amount of lipid droplet / size of lipid droplet: 24 h; for size of lipid droplet: 5 μM-50 μM; for lipid droplet levels: concentrations as indicated in FIG. 18, 24 h
Source text: The reduction of lipid droplets in SH-SY5Y cells by Compound 1A and Compound 2A was detected by a method that was similar to Example 2, and the result was shown in FIG. 18.
The effects of unconjugated LC3 binding Compound A1, A5 and unconjugated lipid droplet probe ORBB […] respectively on lipid droplets in SH-SY5Y cells (FIG. 20A) and MEF cells (FIG. 20B) were detected by a method similar to Example 2.

[4] = test system: lipid droplets in SH-SY5Y cells; test: Lipid droplets in SH-SY5Y cells in the presence of autophagy inhibitor NH4Cl; assay type: cell-based, human; conditions: with NH4Cl 5 mM, 24 h
Procedure: By a method similar to Example 4, but after 6 hours from OA induction of lipid droplets, while the test compound was added into cells, autophagy inhibitor ammonium chloride (NH4Cl, final concentration of 5 mM) was added simultaneously. After continuous treatment for 24 hours, the lipid droplets were stained. […] Therefore, the compound of present disclosure reduced lipid droplets by targeting autophagy of cells.

[5] = test system: lipid droplets in 3T3-L1 fat precursor cell differentiated fat cells; test: Lipid droplets in 3T3-L1 fat precursor cell differentiated fat cells; assay type: cell-based, mouse; conditions: 3T3-L1 differentiated fat cells, 24 h; for effect of the compound on lipid droplets under the treatment of NH4Cl: 5 μM + NH4Cl 5 mM; for amount of lipid droplets / size of lipid droplets: 5 μM
[6] = test system: autophagosome-lipid droplet colocalization in MEF cells; test: Colocalization of autophagosome and lipid droplets in mCherry-LC3B transfected MEF cells; assay type: cell-based, mouse; conditions: 5 μM, 3 h, compared to DMSO control
Procedure: (1) In MEF cells, mCherry-LC3B was expressed by cDNA plasmid transfection.
(2) OA was added to the culture medium 30 hours after transfection to induce lipid droplets.
(3) Compounds were added to treat cells 6 hours after induction.
(4) 3 hours after compounds addition, cells were fixed and BODIPY stained.
(5) The coverslips laid in the multi-well plates were removed, and imaged with the Zeiss 880 confocal microscope after mounted to observe the aggregation of LC3 puncta around the lipid droplets.
In MEF cells, mCherry-LC3B was expressed by cDNA plasmid transfection. At 30th hour of overexpression, OA was added into cells for lipid droplet induction. 6 hours later, the compound was added for 3 hours' treatment, and then cells were subjected to immunostaining. […] Lipid droplets (green) were stained with BODIPY stain, and nucleus were indicated with DAPI stain. […] In FIG. 24, the colocalized autophagosome-lipid droplet was marked with circles.

[7] = test system: lipid droplets in LC3B knockout HEK293T cells; test: Lipid droplets in LC3B knockout HEK293T cells; assay type: cell-based, human; conditions: 5 μM
Procedure: The effect of conjugated compounds (Compound 1A, Compound 2A, Compound 3A or Compound 4A at a concentration of 5 μM) on lipid droplets in LC3B knockout HEK293T cells was tested by a method similar to Example 2.

[8] = test system: lipid droplets in human normal liver cell line QSG7701; test: Endogenous lipid droplets in human normal liver cell line QSG7701; assay type: cell-based; conditions: QSG7701, no induction, 5 μM, 24 h
Procedure: 10% FBS+90% RPMI 1640 culture medium was used for cultivation, cell incubator culture condition of 37° C. and 5% CO2 was used. Cells were plated as 50 thousands/well (12 well plate was plated with aseptic treated slides). When cells grew to a confluence of 80-90%, the compound (Compound 1A or Compound 2A, at a concentration of 5 μM) was added for treatment, and LC3 binding Compound A1, A5, lipid droplet probe Sudan IV as well as DMSO acted as a control. […]. In the compounds of present disclosure, LC3 binding moiety was covalently linked with lipid droplet binding moiety, and thus could achieve the effect of reducing liver cell endogenous lipid droplet.

LC3B = LC3B (Homo sapiens, UniProt Q9GZQ8); test: MST detection of affinity activity with LC3B; assay type: binding; parameters: His8 (with TEV site) (N); made in house; host or cells: Escherichia coli BL21(DE3)pLysS; conditions: MST; read-out: Kd (μM), equilibrium dissociation constant between the conjugated compound and LC3B
Procedure: The recombinant GST-LC3B proteins were prepared and purified, dialyzed into 1×PBS, and then labelled with the red fluorophore with the protein labeling kit RED-NHS (Nanotemper, cat. no. L001).
The MST experiments were performed using the Monolith NT.115 instrument (NanoTemper Technologies). The reaction buffer contains 20 mM HEPES, pH 7.4, 150 mM NaCl, and the protein concentration was 500 nM. The MST data were collected under 40% infrared laser power and 20% light-emitting diode power. The data were analyzed by Nanotemper software.

wild type MEF cells = test: Integrity of nuclear membrane, cell membrane and mitochondria in MEF cells; assay type: cell-based, mouse; conditions: 5 μM, 24 h
Procedure: Cells were blocked in 4% BSA+0.1% Triton X-100 in 1×PBS for 30 min and incubated overnight at 4° C. with primary antibody goat polyclonal Lamin B1 (1:200, Santa Cruz Biotechnology, cat. no. sc-6216, RRID: AB_648156), washed with blocking buffer, and incubated with secondary antibody (1:500, Alexa Flour488 donkey anti-goat, Jackson immunoResearch Lab, cat.no. 705-547-003, RRID: AB_2340431) at room temperature for 1 hour. The samples were washed three times and stained with DAPI for 10 min at room temperature.
MitoTracker staining and CellMask staining were performed the same as LysoTracker staining, except using MitoTracker™ Green FM (500 nM, Thermo Fisher, cat. no. M7514) staining for 3 hours to detect total mitochondria; MitoTracker™ Red CMXRos. (500 nM, Thermo Fisher, cat. no. M7512) staining for 3 hours to detect healthy mitochondria; and CellMask™ (2000×, CellMask™ Plasma Membrane Stains, Thermo Fisher, cat. no. C10046) staining for 5 minutes at 37° C.
Wild type MEF cells were treated with conjugated compound (Compound 1A, Compound 2A, Compound 3A or Compound 4A at a concentration of 5 μM) according to a method similar to Example 2. […]

[9] = test system: lipid droplets in wild type MEF cells; test: Reduction of OA-induced lipid droplets in wild type MEF cells (BODIPY 493/503 staining); assay type: cell-based, mouse

Kd (LC3B) [µM]	integrity of nuclear membrane, cell membrane, mitochondrion membrane (wild type MEF cells)	Molecule	lipid droplets [1]	amount of lipid droplets ([1]; 1.58 μM-50 μM)	size of lipid droplets ([1]; 1.58 μM-50 μM)	lipid droplets [2]	amount of lipid droplet [3]	size of lipid droplet [3]	lipid droplet levels [3]	lipid droplets [4]	effect of the compound on lipid droplets under the treatment of NH4Cl [5]	amount of lipid droplets [5]	size of lipid droplets [5]	ratio of colocalization of red and green aggregation point (autophagosome-lipid droplet) [6]	reduction of lipid droplets induced by conjugated compounds after knockout of LC3B gene [7]	endogenous lipid droplets (amount) [8]	amount of lipid droplets ([1]; 0.5 μM-50 μM)	size of lipid droplets ([1]; 5 μM-50 μM)	lipid droplets ([9]; DMSO treated cells, 5 mM NH4Cl, 24 h, relative to cells not treated with NH4Cl)	amount or size of lipid droplets ([9]; wild type MEF, autophagy blocker NH4Cl)
5.37		Cc1ccccc1/N=N/c1ccc(/N=N/c2c(OCCCCCCCCCCOc3cc(O)cc4oc(=O)cc(-c5ccccc5)c34)ccc3ccccc23)c(C)c1 [Compound 2A, 7-hydroxy-5-((10-((1-((E)-(2-methyl-4-((E)-o-methylphenyldiazenyl)phenyl)diazenyl)naphthalen-2-yl)oxy)decyl)oxy)-4-phenyl-2H-chromen-2-one]	significantly reduced	significantly reduced	significantly reduced	does not change; also recorded: ineffective	significantly reduce	significantly reduce	significantly reduces	does not change; also recorded: did not reduce	blocked	could reduce	could change	significantly increased	largely blocked	significantly reduce; also recorded: could reduce				
3.56		3-(3,5-dibromo-4-hydroxylbenzylidene)-5-iodo-1-(10-((1-((E)-(4-((E)-phenyldiazenyl)phenyl)diazenyl)naphthalen-2-yl)oxy)decyl)indol-2-one [Compound 1A]	significantly reduced			does not change; also recorded: ineffective	significantly reduce	significantly reduce	significantly reduces	does not change; also recorded: did not reduce	blocked	could reduce	could change	significantly increased	largely blocked	significantly reduce; also recorded: could reduce	significantly reduced	significantly reduced		
	Did not Affect	Cc1ccccc1/N=N/c1ccc(/N=N/c2c(OCCCCCCCCCCOc3cc(O)c4c(-c5ccccc5)cc(=O)oc4c3)ccc3ccccc23)c(C)c1 [Compound 2]																		
		Cl.N [NH4Cl, ammonium chloride]																	slight increase	slightly increased
